Data published in patent publication US20180372720A1, “STABLE ISOTOPE LABELING KINETICS - SECONDARY ION MASS SPECTROMETRY (SILK SIMS) AND METHODS OF USE THEREOF” (Washington University, priority 2017, published 2018).

Legend:
[1] = mouse, in vivo
Method: Mouse whole blood was spun at 1,000×g for 10 min and the plasma (supernatant) removed. Plasma proteins were precipitated with ice-cold acetone followed by de-lipidation with hexane and the aqueous fraction was dried in vacuo^1. 1:1 MTBSTFA/acetonitrile was added and samples were incubated 70° C. for 30 min. Duplicate 1 μL injections were made into an Agilent 5973 MSD mass spectrometer using a 30 μm×0.25 mm DB-5MS column (Agilent Technologies). […] The molar fraction of labeled leucine was calculated as: MFL=TTR/(1+TTR).

[2] = test system: Aβ proteoforms; settings: Pt2, 8 days between labeling and expiration
Method: 1 g of frontal lobe tissue was homogenized in ice-cold 1×PBS with 0.05% CHAPS and centrifuged at 17,000×g for 30 min at 4° C. as previously described^4. The supernatant was spun for 1 hr at 100,000×g at 4° C. and the resulting pellet solubilize in 5 M guanidine overnight at 4° C. with rotation. Next, samples were spun for 20 min at 17,000×g at 4° C. and the supernatant was diluted 1:10 in 1×PBS in BSA-block tubes as previously described^4. Samples were immunoprecipitated (IP) with 50 uL of HJ5.1 anti-Aβ antibody (mid-domain epitope) coupled Dynabeads (Catalog #14311 D, Invitrogen, Carlsbad, Calif.) made following the manufacturer's instructions. After overnight incubation at 4° C. IPs were eluted in neat formic acid and dried in vacuo. Samples were resuspended in 50 mM TEABC (Catalog #17902, Sigma, St. Louis, Mo.), spiked with ^15N-Aβ internal standard, and digested overnight with 0.25 ng/μL Lys-N(Catalog #100965-1, Seikagaku Biobusiness Corp., Tokyo, Japan) at 4° C.
Samples were resuspended in 1% FA/10% ACN (v/v) with 20 nM BSA digest (Catalog #1863078, Pierce, Rockford, Ill.). Samples were analyzed in triplicate by nanoLC-MS/MS on an LTQ-Orbitrap Fusion (Thermo Fisher Scientific) in positive ion mode. Separations were performed using an online NanoAcquity UPLC (Waters, Milford, Mass.) using an ACQUITY UPLC HSS T3 (360 μm OD×75 μm ID) column packed with 10 cm C18 (1.8 μm, 100 Å, Waters) at 300 nL/min and heated to 65° C. Mobile phases were 0.1% FA in water (A) and 0.1% FA in ACN (B). Samples were eluted from the column with the gradient starting at 12% B, which was ramped to 32% B over 10 min and further increased to 90% B over 5 min and held for 1 min, before re-equilibration to 12% B over 2 min. Total run time, including column equilibration, sample loading, and analysis was 30 min. The mass spectrometer was operated in targeted MS2 mode. MS2 spectra were acquired in the Orbitrap (30,000 at m/z 400) in centroid mode using XCalibur, version 4.0 (Thermo Fisher Scientific). Ion injection times for the targeted MS2 scans for labeled and unlabeled respectively (in ms) were: Aβ mid-domain (54, 1080), Aβ40 (54, 540), and Aβ42 (54, 1080). The Orbitrap automatic gain control targets were set 5×10^5 for all proteoforms except Aβ42, which was set to 1×10^6. The targeted precursor ions were sequentially isolated in the quadrupole and fragmented in the Orbitrap using HCD (isolation width 1.6 Da, normalized collision energy 25%, activation Q 0.250, and activation time 10 ms). […]
Data (.raw files) were imported into a Skyline template containing the Lys-N C-terminal peptides of Aβ8, 40, 42 and the mid-domain. […] The sum of all transitions (b ions monitored for each parent peptide) were summed for unlabeled and SILK Aβ peptides and exported from Skyline to Excel. […]

[3] = test system: amyloid-β plaques; settings: mouse, in vivo
Method: To assess the feasibility of detecting ^13C6-leucine isotopic enrichment in native amyloid-β plaques, tracer was administered to APP/PS1 mice at 3.5 months of age (pre-plaque pathology) for 10 and 5 weeks (FIG. 2A).
Two male double transgenic mice expressing chimeric mouse/human amyloid precursor protein (Mo/HuAPP695swe) and a mutant human presenilin 1 (PS1-dE9) both directed to CNS neurons (stock 34832-JAX) were kindly provide by Dr. Timothy Miller. Animals were given leucine-free chow (Catalog #1831936, Test Diet, St. Louis, Mo.) with 5 mg/mL ^12C6-leucine added to 2% sucrose-containing drinking water to control leucine intake for a one week acclimation period. After the one-week acclimation period, animals were given 5 mg/mL ^13C6- or ^12C6-leucine orally via 2% sucrose drinking water, averaging 36 mL of H2O/week (FIG. 2). Animals were 4 months old at the time of labeling and 6.5 months old at the end of labeling. Following the end of the labeling paradigm, animals were anesthetized with 65 mg/kg pentobarbital sodium and sacrificed by decapitation. Brains were removed and placed in 10% neutral-buffer formalin (Catalog #15740-01, EMS, Hatfield, Pa.). All animal procedures were conducted in accordance with the Washington University Animal Studies Committee, and are consistent with the National Institutes of Health (NIH) guidelines for the care and use of animals. Pieces of mouse brain were washed into NaHCa and incubated overnight at 4° C. The following morning, samples were stained with 1% osmium/NaHCa for 1 hour, washed 4 times over 1 hour and then en bloc stained with 1% uranyl acetate/H2O for 1 hour in the dark. Samples were rinsed with 3 exchanges of water, 10 minutes each and then processed for LR White embedding as described above with the addition of being gold-coated once on the Si wafer. Serial adjacent sections were place on glass microscope slides for toluidine blue staining for light microscopy.
Data was acquired on either a Cameca NanoSIMS 50 at WASHU (cells and human tissue) or NanoSIMS 50 L at Brigham and Women's Hospital (mouse tissue). Images of the B-cell hybridoma used to calculate that ^13C6-leucine standard curve were acquired at a 50 μm raster for 15 minutes at 1 ms/px and 65.5 s/plane (dwell time) for a total of 10 planes (i.e., cycles) per mass (256×256 px). APP/PS1 mouse brain tissue was acquired at a 17-60 μm raster for 11-87 minutes at 2 ms/px and 131 s/plane (dwell time) for a total of 5-40 cycles (i.e., planes) per mass (256×256 px).
Each analysis was performed in 24-hour blocks with measurements on SiC standard to assess instrument stability followed by measurements on an un-labeled control prior to SILK-SIMS data acquisition. Raw image data was imported into custom, in-house particle definition software, L'Image, to produce quantitative mass images of heavy and light isotopes, and determine where any isotopic anomalies may be located. The fractional uncertainty, f, of the heavy/light isotope ratios in each region-of-interest (ROI) was calculated in Excel as the sum in quadrature of the standard deviation of the average ratios measured for non-labeled material, σStd, and the Poisson errors, σROI, of the ROI itself, as given by the equation

[4] = test system: Aβ plaques; settings: in vivo
Method: Human cortical tissue samples were obtained from the Charles F. and Joanne Knight Alzheimer's Disease Research Center (ADRC) at Washington University School of Medicine in Saint Louis, Mo. Cognitive status was determined with a validated retrospective postmortem interview with an informant to establish the Clinical Dementia Rating (CDR). […] At autopsy, the left hemisphere was fixed in 10% neutral buffered formalin and stored at room temperature until further preparation.
Blocks were polymerized at 80° C. for 72 hrs. Tissue blocks were sectioned using a diamond ultrathin section knife on a Reichert Ultra-Cut E ultramicrotome at 300-500 nm thick. […]
Each analysis was performed in 24-hour blocks with measurements on SiC standard to assess instrument stability followed by measurements on an un-labeled control prior to SILK-SIMS data acquisition. Raw image data was imported into custom, in-house particle definition software, L'Image, to produce quantitative mass images of heavy and light isotopes, and determine where any isotopic anomalies may be located. The fractional uncertainty, f, of the heavy/light isotope ratios in each region-of-interest (ROI) was calculated in Excel as the sum in quadrature of the standard deviation of the average ratios measured for non-labeled material, σStd, and the Poisson errors, σROI, of the ROI itself, as given by the equation […]

Compound: CC(C)C[C@H](N)C(=O)O [^13C6-leucine]
- Average Mol fraction labeled [1]: 72.02%
- detection of labeled Aβx-38 [2]: unable detect
- enrichment above isotopic background, Aβ mid-domain [2]: 0.053%
- enrichment above isotopic background, Aβx-40 [2]: 0.112%
- enrichment above isotopic background, Aβx-42 [2]: 0.022%
- normalized tracer enrichment ratio [3]: 0.015±2.22×10^−4
- raw tracer enrichment ratio [3]: 0.015±1.56×10^−5
- ^13C/^12C isotope ratio ([3]; po): 2.7%
- ^13C/^12C ratio ([3]; po): 3.7%
- normalized ^13C^14N−/^12C^14N− ratio ([3]; po): 0.024±3.43×10^−4
- raw ^13C^14N−/^12C^14N− ratio ([3]; po): 0.023±1.41×10^−5
- increase above the natural abundance of ^13C/^12C [4]: 18%
- mean ratio of ^13C^14N−/^12C^14N− [4]: 1.31%±0.05
